T/C data for 17 molecules are collected here from PubChem BioAssay AID194 (DTP/NCI, 2004).

This experiment concerns BDF1 mice, B16 melanoma s.c., survival/tumor T/C. The experiment can be described thus: NCI In Vivo Anticancer Drug Screen. Data for tumor model B16 Melanoma (subcutaneous) in B6D2F1 (BDF1) mice. The procedure:
The antitumor activity of compounds was measured in mice bearing transplantable tumors. Survival or tumor size were measured and the results are expressed as the measurement made in the treated group (T) divided by the measurement made in the vehicle treated control group (C). The tumor model used in this assay is B16 Melanoma (subcutaneous) in B6D2F1 (BDF1) mice

[1] abbreviates: endpoint: median survival time, dose: 1.25 mg/kg/injection, schedule: Q01DX009 (ip), vehicle: saline, higher = longer survival.
The mark [2] stands for this setting: endpoint: median survival time, dose: 50.0 mg/kg/injection, schedule: Q01DX009 (ip), vehicle: saline, higher = longer survival.
Setting [3] is: endpoint: median survival time, dose: 100.0 mg/kg/injection, schedule: Q01DX009 (ip), vehicle: saline, higher = longer survival.

Structures are written as SMILES. “And” between values parts separate entries of the source, which are not always exact repeats. Equal values may be shown once. Results filed as inconclusive are left out. *1 amine or outer side, *2 acyl side, *3 side chain or, on linkers, in order; H or OH if unused. Where a SMILES comes first, the peptide text is derived from it. Bridges are numbered along the chain shown (N, C = ends). Roman numbers before positions name the chains, in order. [ ]: non-standard residue; d: D form. The star is where a group is joined. Actinocin(9to1) = Cc1c2oc3c(C)ccc(C(=O)[*:1])c3nc-2c(C(=O)[*:2])c(N)c1=O; Quinoxaline2carbonyl = O=C(c1cnc2ccccc2n1)*; aThr = C[C@H](O)[C@H](N)C(=O)O; NMeV = CN[CH](C(=O)O)C(C)C; NMeC = CN[CH](CS)C(=O)O; Sar = CNCC(=O)O

For `NC(=O)c1[nH]nc(C2OC(CO)C(O)C2O)c1O` (stereo unspecified), the T/C reads like this: (endpoint: median survival time, dose: 0.12 mg/kg/injection, schedule: Q01DX009 (ip), vehicle: saline, higher = longer survival) 108 % of control; (endpoint: median survival time, dose: 0.25 mg/kg/injection, schedule: Q01DX009 (ip), vehicle: saline, higher = longer survival) 109 % of control; (endpoint: median survival time, dose: 0.5 mg/kg/injection, schedule: Q01DX009 (ip), vehicle: saline, higher = longer survival) 106 % of control; (endpoint: median survival time, dose: 0.67 mg/kg/injection, schedule: Q01DX009 (ip), vehicle: saline, higher = longer survival) 102 % of control; under setting [1], 87 % of control.
`Cc1c2oc3c(C)ccc(C(=O)N[C@@H]4C(=O)N[C@H](C(C)C)C(=O)N5CCC[C@H]5C(=O)N(C)CC(=O)N(C)[C@@H](C(C)C)C(=O)O[C@H]4C)c3nc-2c(C(=O)N[C@@H]2C(=O)N[C@H](C(C)C)C(=O)N3CCC[C@H]3C(=O)N(C)CC(=O)N(C)[C@@H](C(C)C)C(=O)O[C@H]2C)c(N)c1=O` (I: [aThr][dV]P[Sar][NMeV] / II: [aThr][dV]P[Sar][NMeV]; ester I:1-I:C, II:1-II:C; linker I:N-II:N via Actinocin(9to1)): where the note is “endpoint: median tumor weight (est.), dose: 100.0 micrograms/kg/injection, schedule: Q01DX009 (ip), vehicle: saline, higher = larger tumour”, the T/C is 38 % of control.
Regarding `OCCN1CCN(CC/C=C2/c3ccccc3Sc3ccc(C(F)(F)F)cc32)CC1`, the T/C is, setting by setting: (endpoint: median survival time, dose: 1.8 micrograms/kg/injection, schedule: Q01DX009 (ip), vehicle: saline, higher = longer survival) 93 % of control; (endpoint: median survival time, dose: 3.7 micrograms/kg/injection, schedule: Q01DX009 (ip), vehicle: saline, higher = longer survival) 95 % of control; (endpoint: median survival time, dose: 7.5 micrograms/kg/injection, schedule: Q01DX009 (ip), vehicle: saline, higher = longer survival) 109 % of control; (endpoint: median survival time, dose: 15.0 micrograms/kg/injection, schedule: Q01DX009 (ip), vehicle: saline, higher = longer survival) 103 % of control; (endpoint: median survival time, dose: 30.0 micrograms/kg/injection, schedule: Q01DX009 (ip), vehicle: saline, higher = longer survival) 91 % of control.
Regarding `C=CCN1/C(=C/C=C\c2sc3ccccc3[n+]2CC=C)Sc2ccccc21`, the T/C (endpoint: median survival time, dose: 125.0 micrograms/kg/injection, schedule: Q01DX009 (ip), vehicle: suspension in saline, higher = longer survival) was 121 % of control.
Regarding `O=C1OC(C(O)CO)C(O)=C1O` (stereo unspecified), the T/C reads like this: under setting [2], 106 % of control; under setting [3], 103 % of control; (endpoint: median survival time, dose: 200.0 mg/kg/injection, schedule: Q01DX009 (ip), vehicle: saline, higher = longer survival) 103 % of control; (endpoint: median survival time, dose: 400.0 mg/kg/injection, schedule: Q01DX009 (ip), vehicle: saline, higher = longer survival) 109 % of control; (endpoint: median survival time, dose: 800.0 mg/kg/injection, schedule: Q01DX009 (ip), vehicle: saline, higher = longer survival) 109 % of control.
Take `O=c1cnn(C2OC(CO)C(O)C2O)c(=O)[nH]1` (stereo unspecified): the T/C (endpoint: median survival time, dose: 75.0 mg/kg/injection, schedule: Q01DX009 (ip), vehicle: saline, higher = longer survival) is 117 % of control; the T/C (endpoint: median survival time, dose: 150.0 mg/kg/injection, schedule: Q01DX009 (ip), vehicle: saline, higher = longer survival) is 104 % of control; the T/C (endpoint: median survival time, dose: 300.0 mg/kg/injection, schedule: Q01DX009 (ip), vehicle: saline, higher = longer survival) is 90 % of control; the T/C (endpoint: median survival time, dose: 600.0 mg/kg/injection, schedule: Q01DX009 (ip), vehicle: saline, higher = longer survival) was 101 % of control.
As for `CCN1C=C/C(=C/c2cc3scc(-c4ccccc4)[n+]3c3ccccc23)c2ccccc21`, for the setting “endpoint: median survival time, dose: 0.15 mg/kg/injection, schedule: Q01DX009 (ip), vehicle: Klucel (hydroxypropylcellulose) (HPC), higher = longer survival”, the T/C was 107 % of control.
With `c1ccc(-c2csc3c4ccccc4c4ccccc4[n+]23)cc1`, the T/C was 114 % of control (endpoint: median survival time, dose: 0.5 mg/kg/injection, schedule: Q01DX009 (ip), vehicle: suspension in saline, higher = longer survival) and 124 % of control (endpoint: median survival time, dose: 1.0 mg/kg/injection, schedule: Q01DX009 (ip), vehicle: suspension in saline, higher = longer survival).
Consider `CC1(C)N=C(N)N=C(N)N1c1ccc(OCC(=O)N2CCOCC2)c(Cl)c1`, for which the T/C under setting [2] is 103 % of control and the T/C under setting [3] is 114 % of control.
In the case of `CCOC(=O)c1csc(CCNC(=O)c2ccccc2)n1`, the T/C by setting is: (endpoint: median survival time, dose: 6.25 mg/kg/injection, schedule: Q01DX009 (ip), vehicle: water, higher = longer survival) 101 % of control; (endpoint: median survival time, dose: 12.5 mg/kg/injection, schedule: Q01DX009 (ip), vehicle: water, higher = longer survival) 94 % of control; (endpoint: median survival time, dose: 25.0 mg/kg/injection, schedule: Q01DX009 (ip), vehicle: water, higher = longer survival) 113 % of control; (endpoint: median survival time, dose: 50.0 mg/kg/injection, schedule: Q01DX009 (ip), vehicle: water, higher = longer survival) 87 % of control; (endpoint: median survival time, dose: 100.0 mg/kg/injection, schedule: Q01DX009 (ip), vehicle: water, higher = longer survival) 98 % of control.
With `CC1NC(=O)C(NC(=O)c2cnc3ccccc3n2)COC(=O)C(C(C)C)N(C)C(=O)C2CSSCC(C(=O)N(C)C(C(C)C)C(=O)OCC(NC(=O)c3cnc4ccccc4n3)C(=O)NC(C)C(=O)N2C)N(C)C1=O` (stereo unspecified) (I: Quinoxaline2carbonyl-SA[NMeC][NMeV] / II: Quinoxaline2carbonyl-SA[NMeC][NMeV]; ester I:1-II:C, I:C-II:1; disulfide I:3-II:3; configuration not given here), the T/C (endpoint: median survival time, dose: 11.2 micrograms/kg/injection, schedule: Q01DX009 (ip), vehicle: Klucel (hydroxypropylcellulose) (HPC), higher = longer survival) was 91 % of control; the T/C (endpoint: median survival time, dose: 22.5 micrograms/kg/injection, schedule: Q01DX009 (ip), vehicle: Klucel (hydroxypropylcellulose) (HPC), higher = longer survival) was 107 % of control; the T/C (endpoint: median survival time, dose: 45.0 micrograms/kg/injection, schedule: Q01DX009 (ip), vehicle: Klucel (hydroxypropylcellulose) (HPC), higher = longer survival) was 109 % of control; the T/C (endpoint: median survival time, dose: 90.0 micrograms/kg/injection, schedule: Q01DX009 (ip), vehicle: Klucel (hydroxypropylcellulose) (HPC), higher = longer survival) is 104 % of control.
As to `c1ccc([As+](c2ccccc2)(c2ccccc2)c2ccccc2)cc1`, the T/C runs as follows: (endpoint: median survival time, dose: 1.87 mg/kg/injection, schedule: Q01DX009 (ip), vehicle: Klucel (hydroxypropylcellulose) (HPC), higher = longer survival) 95 % of control; (endpoint: median survival time, dose: 3.75 mg/kg/injection, schedule: Q01DX009 (ip), vehicle: Klucel (hydroxypropylcellulose) (HPC), higher = longer survival) 109 % of control.
Regarding `CCOC(=O)CNC(=O)CCCCSc1ncnc2nc[nH]c12`, the T/C is, setting by setting: (endpoint: median survival time, dose: 20.0 mg/kg/injection, schedule: Q01DX009 (ip), vehicle: Klucel (hydroxypropylcellulose) (HPC), higher = longer survival) 121 % of control; (endpoint: median survival time, dose: 40.0 mg/kg/injection, schedule: Q01DX009 (ip), vehicle: Klucel (hydroxypropylcellulose) (HPC), higher = longer survival) 111 % of control; (endpoint: median survival time, dose: 80.0 mg/kg/injection, schedule: Q01DX009 (ip), vehicle: Klucel (hydroxypropylcellulose) (HPC), higher = longer survival) 119 % of control; (endpoint: median survival time, dose: 160.0 mg/kg/injection, schedule: Q01DX009 (ip), vehicle: Klucel (hydroxypropylcellulose) (HPC), higher = longer survival) 115 % of control; (endpoint: median survival time, dose: 320.0 mg/kg/injection, schedule: Q01DX009 (ip), vehicle: Klucel (hydroxypropylcellulose) (HPC), higher = longer survival) 118 % of control; (endpoint: median survival time, dose: 640.0 mg/kg/injection, schedule: Q01DX009 (ip), vehicle: Klucel (hydroxypropylcellulose) (HPC), higher = longer survival) 122 % of control.
`Nc1nc(=S)c2[nH]cnc2[nH]1`: where the note is “endpoint: median survival time, dose: 48.0 mg/kg/injection, schedule: Q01DX001 (ip), vehicle: alkali diluted with saline, higher = longer survival”, the T/C is 102 % of control.
For `NC(CS/C(Cl)=C/Cl)C(=O)O` (stereo unspecified), the T/C under setting [1] is 102 % of control; the T/C (endpoint: median survival time, dose: 2.5 mg/kg/injection, schedule: Q01DX009 (ip), vehicle: saline, higher = longer survival) was 95 % of control; the T/C (endpoint: median survival time, dose: 5.0 mg/kg/injection, schedule: Q01DX009 (ip), vehicle: saline, higher = longer survival) was 97 % of control and 106 % of control; the T/C (endpoint: median survival time, dose: 18.0 mg/kg/injection, schedule: Q01DX009 (ip), vehicle: saline, higher = longer survival) is 101 % of control.
`CCCCS(=N)(=O)CC[C@H](N)C(=O)O` (stereo partly specified): the T/C reads like this: (endpoint: median survival time, dose: 444.0 mg/kg/injection, schedule: Q04HX003 (ip), vehicle: saline, higher = longer survival) 104 % of control; (endpoint: median survival time, dose: 888.0 mg/kg/injection, schedule: Q04HX003 (ip), vehicle: saline, higher = longer survival) 100 % of control; (endpoint: median survival time, dose: 1776.0 mg/kg/injection, schedule: Q04HX003 (ip), vehicle: saline, higher = longer survival) 102 % of control.
For `CC1=C(/C=C/C(C)=C/C=C/C(C)=C/CO)C(C)(C)CCC1`, the T/C by setting is: (endpoint: median survival time, dose: 4.0 mg/kg/injection, schedule: Q01DX009 (ip), vehicle: saline with Tween-80, higher = longer survival) 102 % of control; (endpoint: median survival time, dose: 8.0 mg/kg/injection, schedule: Q01DX009 (ip), vehicle: saline with Tween-80, higher = longer survival) 94 % of control; (endpoint: median survival time, dose: 16.0 mg/kg/injection, schedule: Q01DX009 (ip), vehicle: saline with Tween-80, higher = longer survival) 101 % of control and 117 % of control; (endpoint: median survival time, dose: 32.0 mg/kg/injection, schedule: Q01DX009 (ip), vehicle: saline with Tween-80, higher = longer survival) 100 % of control and 102 % of control; (endpoint: median survival time, dose: 64.0 mg/kg/injection, schedule: Q01DX009 (ip), vehicle: saline with Tween-80, higher = longer survival) 92 % of control.
